Data reported in patent publication US20140107062A1, “COMPOSITIONS AND METHODS FOR TREATING OR PREVENTING DISEASES OF BODY PASSAGEWAYS” (Aravasc Inc., priority 2007, published 2014).
Values after ≈ are worked out from the molar mass of the structure shown. Values joined by “and” are separate entries in the source; they are usually repeats but may differ in a detail not shown here. Equal values may be shown once. Read-outs that look alike come from different tables or passages of the source.

Tests used:
[1] = administered systemically; cited from earlier work
[2] = Rat in situ intra-tracheal infusion of THX-polymer formulation; assay type: in vivo; settings: 8 mg/kg
Method: A pilot study of in situ intra-tracheal infusion was performed to estimate tracheal and lung tissue levels after in situ intra-tracheal infusion of THX-polymer formulation.
Two rats (immediately after termination) were intra-tracheally infused over 30 mins with a THX-polymer formulation. The dose was 8 mg/kg and volume was 200 μl. After infusion these were wrapped for 2 hours in a warm heating pad. Tracheo-bronchial and lung tissue were harvested after wiping the lumen area of the tracheo-bronchial lumen with a tissue and spatula (to take off any adsorbed drug) at the end of 2 hours. Samples were frozen at −80 C until processed and analyzed by LC-MS. Sample extraction was conducted at AraVasc Inc. The processed samples were analyzed at Alta Analytical laboratories by LC-MS.
(§1) The equipment used was a SCIEX PE 3000.
(§2) The supernatant extract was subject to LCMS analysis.

[3] = Drug distribution 28-day PK study in naïve mice implanted with ETDS; assay type: in vivo; settings: for Distribution of drugs from the implants in vivo: subcutaneous ETDS implants in mice
Method: An in vivo 28-day PK and drug distribution studies was conducted to understand drug distribution and the release profile/duration of drug-released from the different ETDS.
Nine mice were subcutaneously implanted with the same ETDS as implanted in the efficacy study. […] […] Three animals were terminated at each of these time points. Drug distribution in the plasma and skin tissue was analyzed by LC-MS. The preclinical stents were explanted and assayed for residual drug.

liver and lung cancer = settings: preliminary reports, clinical trials; cited from earlier work
[4] = Solubility of analytes and polymer in solvents, dissolution media and water; assay type: physicochemical
in vivo = settings: rat
Text: The animals were anesthetized while dosing. […] Samples were frozen until processed for LC-MS analysis.
as §1, §2

[5] = Drug levels in tumor-bearing mice at efficacy study termination; assay type: in vivo; settings: for Drug Exposure, Tumor Tissue / Drug Exposure, Plasma: efficacy study; for Drug Exposure, Tumor Tissue: day 28-47; for Drug Exposure, Plasma: day 28-47, n = 8; for Explanted ETDS (Residual - efficacy): n = 3, ETDS 125 ± 25 ug total drug (1:1)
Method: The fast release mini-ETDS ensured the highest dose delivery. Coated or uncoated fast release preclinical ETDS were implanted in contact with tumor (300 mm^3), 14 days after inoculation of human esophageal-gastric cancer line NUGC4-GFP into nude mice. Tumor growth inhibition was evaluated over 47 day period post-implantation (FIG. 24). […] The projected in vivo dose/day based on an assumption of constant release after the initial ‘burst-effect’, is about 0.45 mg/kg/day.
A drug-dye distribution study was conducted in naïve mice. Plasma, skin tissue at implant site and skin tissue at contralateral site was sampled at defined intervals ranging from 2 hours-28 days. Similarly, plasma and tumor tissue was sampled at efficacy study termination at either 28 or […] days post implantation.
Drug-dye exposure levels in each of these biological samples was quantitated by LC-MS to obtain correlations between efficacious levels of exposure and release profile in naïve mice.
The LCMS analysis was conducted using validated bioanalytical methods discussed below except for HCFU. […] Samples were processed and analyzed immediately. Values may be underestimated.

[6] = Stability of ICG and HCFU (pH, dissolution media, ETDS product); assay type: physicochemical
Text: A suboptimal pH (4) for the dissomedia was chosen to preserve both and simultaneously quantitate them as they eluted.
A suboptimal but workable pH 4 was chosen to evaluate the release profile.

[7] = under physiological conditions and under acidic conditions (pH<4); cited from earlier work
[8] = cited from earlier work
[9] = 200 μl, infused over 30 mins, harvested at 2 hours, individual rats
[10] = Day 4, FR ETDS, individual mice
[11] = Day 4, fast release (FR) ETDS, individual mice
[12] = Day 7, FR ETDS, individual mice
[13] = Day 14, FR ETDS, individual mice
[14] = Day 28, FR ETDS, individual mice
[15] = mouse, plasma, subcutaneous, Day 28, FR ETDS, individual mice, read-out: Plasma Conc.
[16] = mouse, skin tissue at implantation site, subcutaneous, Day 14, FR ETDS, individual mice, read-out: Tissue Conc. site of implant
[17] = DMF, organic solvent or mixture, read-out: Solubility
[18] = DMSO, organic solvent or mixture, read-out: Solubility
[19] = THF, organic solvent or mixture, read-out: Solubility
[20] = acetonitrile, organic solvent or mixture, read-out: Solubility
[21] = dissolution media, read-out: Solubility
[22] = mouse, skin tissue at implantation site, subcutaneous, Day 28, FR ETDS, individual mice, read-out: Tissue Conc. site of implant

SMILES	pulmonary toxicities [1]	Tissue Conc. site of implant [3, 10]	Plasma Conc. [3, 11]	Plasma Conc. [3, 12]	Tissue Conc. site of implant [3, 12]	Plasma Conc. [3, 13]	Tissue Conc. site of implant [3, 13]	Plasma Conc. [3, 14]	Tissue Conc. site of implant [3, 14]	concentration at 28 day [3, 15]	concentration at 14 day [3, 16]	solubility [4, 17]	solubility [4, 18]	solubility [4, 19]	solubility [4, 20]	solubility [4, 21]	solubility ([4]; water, read-out: Solubility)	Distribution of drugs from the implants in vivo [3]	Explanted ETDS (Residual - efficacy) [5]	concentration at 28 day [3, 22]	other results
O=C1CCC(N2C(=O)c3ccccc3C2=O)C(=O)N1 (racemic) [THX, 2-(2,6-dioxo-3-piperidinyl)-1H-isoindole-1,3(2H)-dione]	No pulmonary toxicities	387 ng/g and 338 ng/g and 6410 ng/g	0.95 ng/mL and 3.26 ng/mL and 0.00 ng/mL	7.27 ng/mL and 9.27 ng/mL	22.5 ng/g and 66.5 ng/g and 18.4 ng/g	2.26 ng/mL and 7.55 ng/mL	15.9 ng/g and 16.8 ng/g	13.7 ng/mL and 7.79 ng/mL	20.2 ng/g and 34.0 ng/g and 15.8 ng/g	9.03 ng/mL	30.9 ng/g	75.5 mg/mL (≈ 292 mM)	56 mg/mL (≈ 217 mM)	3.34 mg/mL (≈ 12.9 mM)	0.79 mg/mL (≈ 3.06 mM)	3.34 mg/mL (≈ 12.9 mM)	1.5 mg/mL (≈ 5.81 mM)	–	–	–	Tissue Levels Lung [2, 9]: 0.75 μg/100 mg and 0.58 μg/100 mg; Tissue Levels Trachea [2, 9]: 211.21 μg/100 mg and 290.36 μg/100 mg; THX levels in tracheo-bronchial and lung tissue ([2]; in situ infusion (0.5 hr)): High levels; concentration at 2 h ([2]; rat, lung, other: in situ intra-tracheal infusion, 200 μl, infused over 30 mins, harvested at 2 hours, individual rats, read-out: Tissue Levels Lung): 5800 ng/g; concentration at 7 day ([3]; mouse, plasma, subcutaneous, Day 7, FR ETDS, individual mice, read-out: Plasma Conc.): 5.42 ng/mL; disease control rates (liver and lung cancer): 8%-57%; response rates (liver and lung cancer): 4%-10%; concentration at 20 min (in vivo; 4 mg/Kg): 190 ng/mL; concentration at 40 min (in vivo; 4 mg/Kg): 440 ng/mL; THX levels in lung tissue (in vivo; 12 mg/kg): High levels; THX levels in plasma (in vivo; 12 mg/kg): low levels
CCCCCOC(=O)Nc1nc(=O)n([C@@H]2O[C@H](C)[C@@H](O)[C@H]2O)cc1F [CPX, Capecitabine]	–	–	–	–	–	–	–	–	–	–	–	> 50 mg/mL	> 50 mg/mL	> 50 mg/mL	> 0.4 mg/mL	> 10 mg/mL	> 10 mg/mL	–	–	–	–
O=c1[nH]cc(F)c(=O)[nH]1 [FLX, 5-fluorouracil]	–	–	–	–	–	–	–	–	–	–	–	45.8 mg/mL (≈ 352 mM)	59 mg/mL (≈ 454 mM)	42.1 mg/mL (≈ 324 mM)	1.81 mg/mL (≈ 13.9 mM)	42.1 mg/mL (≈ 324 mM)	> 20 mg/mL	High levels	–	–	–
CCCCCCNC(=O)n1cc(F)c(=O)[nH]c1=O [HCFU, Carmofur]	–	–	–	–	–	–	–	–	–	–	–	> 50 mg/mL	> 50 mg/mL	> 50 mg/mL	> 0.4 mg/mL	0.05 to 0.06 mg/mL (≈ 0.194 to 0.233 mM)	0.02 to 0.03 mg/mL (≈ 0.0777 to 0.117 mM)	–	2.1 µg	–	concentration at 28 day ([3]; mouse, plasma, subcutaneous, HCFU, naïve mice, day 28, n = 3, read-out: Drug Exposure, Plasma): 48.2 ng/mL; concentration at 28 day ([3]; mouse, subcutaneous tissue, subcutaneous, HCFU, naïve mice, day 28, n = 3, read-out: Drug Exposure, Subcutaneous Tissue): 43.3 ng/mL; Drug Exposure, Tumor Tissue ([5]; HCFU): 54.1 ng/mL; Drug Exposure, Plasma ([5]; HCFU, tumor-bearing mice): 59 ng/mL and 58.97 ng/mL; Tumor tissue exposure at steady state, average ([5]; HCFU, termination day 28-47): 54 ng/gm; Stability in the dissolution media ([6]; pH>3): unstable; Stability ([6]; pH>4): not stable; Stability ([6]; physiological pH): limited stability
CC1(C)C(/C=C/C=C/C=C/C=C2\N(CCCCS(=O)(=O)O)c3ccc4ccccc4c3C2(C)C)=[N+](CCCCS(=O)(=O)[O-])c2ccc3ccccc3c21 [ICG, Indocyanine green]	–	15.3 ng/g and 32.4 ng/g and 20.9 ng/g	2.39 ng/mL and 3.76 ng/mL	3.23 ng/mL and 0 ng/mL and 2.26 ng/mL	13.2 ng/g and 12.4 ng/g and 35.9 ng/g	2.23 ng/mL and 0 ng/mL (2×)	13.1 ng/g and 14 ng/g	2.24 ng/mL and 2.26 ng/mL	11.8 ng/g and 11.9 ng/g	2.39 ng/mL	12.2 ng/g	–	–	–	–	–	–	remained confined to the site of implantation	–	12.1 ng/g	half life t1/2 [7]: < 2 min; concentration at 4 day ([3]; mouse, plasma, subcutaneous, Day 4, fast release (FR) ETDS, individual mice, read-out: Plasma Conc.): 3.89 ng/mL; Stability ([6]; acidic pH<4): not stable; Stability in the dissolution media ([6]; pH<3): unstable; in-vivo protein binding [8]: about 95%
CC(=O)O[C@H]1C(=O)[C@@]2(C)[C@H]([C@H](OC(=O)c3ccccc3)[C@]3(O)C[C@H](OC(=O)[C@H](O)[C@@H](NC(=O)c4ccccc4)c4ccccc4)C(C)=C1C3(C)C)[C@]1(OC(C)=O)CO[C@@H]1C[C@@H]2O [PTX, Paclitaxel]	No pulmonary toxicities	18000 ng/g and 6270 ng/g and 6990 ng/g	BLOQ	BLOQ	22000 ng/g and 10300 ng/g and 47000 ng/g	BLOQ	16500 ng/g and 10400 ng/g and 21600 ng/g	BLOQ	12800 ng/g and 10600 ng/g	–	–	154 mg/mL (≈ 181 mM)	27.2 mg/mL (≈ 31.9 mM)	–	44.3 mg/mL (≈ 51.9 mM)	0.05 to 0.06 mg/mL (≈ 0.0586 to 0.0703 mM)	> 20 mg/mL	–	15.4 µg	18900 ng/g	Explanted ETDS Conc. (residual drug) ([3]; Day 14 explanted FR ETDS): 12.30 µg and 14.82 µg and 15.13 µg; Drug Exposure, Plasma ([3]; PTX, naïve mice, day 28, n = 3): BLOQ; concentration at 28 day ([3]; mouse, subcutaneous tissue, subcutaneous, PTX, naïve mice, day 28, n = 3, read-out: Drug Exposure, Subcutaneous Tissue): 12100 ng/g; Drug Exposure, Tumor Tissue ([5]; PTX): 9,668 ng/gm; Drug Exposure, Plasma ([5]; PTX, tumor-bearing mice): 1.53 ng/gm; Average levels detected in plasma ([5]; PTX, tumor-bearing mice): 1.5 ng/mL; solubility ([4]; THF): 41.7 mg/mL (≈ 48.8 mM)
